According to patent US20130324542A1, “[1,2,4]TRIAZOLO[4,3-B][1,2,4]TRIAZINE COMPOUNDS, PREPARATION METHOD AND USE THEREOF” (SHANGHAI INSTITUTE OF MATERIA MEDICA, CHINESE ACADEMY OF …, priority 2010, published 2013):

How the values were obtained:
c-Met tyrosine kinase = c-Met tyrosine kinase (Homo sapiens, UniProt P08581); experiment: c-Met kinase activity on molecular level (ELISA, Poly(Glu,Tyr)4:1 substrate); type: biochemical; details: ATP 5 μM, 37° C., 1 h
Protocol: Poly(Glu, Tyr)4:1 as an enzyme substrate was diluted by potassium ion-free PBS (10 mM, sodium phosphate buffer, 150 mM NaCl, pH7.2-7.4) into a solution of 20 μg/ml. […] After the liquid in wells was removed, the plate was washed three time by T-PBS (PBS solution containing 0.1% Tween-20) at 200 μl/well, 5 min for each time. The ELISA plate was then dried in an oven at 37° C. for 1-2 h.
Each well was added with 50 μL of ATP solution diluted by reaction buffer (50 mM HEPES pH 7.4, 50 mM MgCl2, 0.5 mM MnCl2, 0.2 mM Na3VO4, 1 mM DTT) at a final concentration of 5 μM. Compound diluted by 1% DMSO into a suitable concentration was added at 10 μl/well and then c-Met tyrosine kinase protein diluted by 40 μl of reaction buffer was added. The plate was placed on a shaking table (100 rpm) at 37° C. and incubated for 1 h, and then washed three times by T-PBS. For each assay, triplicate wells without enzyme were used as blank control and wells having the corresponding DMSO concentration without compound were used as negative control. Primary antibody PY99 (p-Tyr (PY99), Cell Signaling Technology, 1:1000 diluted in 5 mg/mL BSA T-PBS) was added at 100 μl/well. The plate was then placed on a shaking table at 37° C. and incubated for 0.5 h, and washed by T-PBS. Secondary antibody horseradish peroxidase-conjugated goat anti-mouse IgG (1:2000 diluted in 5 mg/mL BSA T-PBS) was added at 100 μl/well. The plate was then placed on a shaking table at 37° C. for 0.5 h and washed three times by T-PBS. 2 mg/mL of OPD developer (diluted by a 0.1M citric acid-sodium citrate buffer (pH=5.4) containing 0.03% of H2O2) was added at 100 μl/well, and the plate was kept in dark at 25° C. for 1-10 min. OPD was ultrasonically dissolved and the developer solution was prepared just before use. 2 M of H2SO4 was added at 50 μl/well to stop the reaction. The plate was read using a wavelength regulated multi-well spectrophotometer (SPECTRA MAX 190) at 490 nm.
The inhibition rate was calculated according to the following equation:
Inhibition rate (%)=(1−(ODcompound−ODblank)/(ODnegative−ODblank))×100%
IC50 value was calculated through a four-parameter fit according to the inhibition curve.

NIH3T3/TPR-Met cells = experiment: Cell proliferation mediated by c-Met, SRB assay, NIH3T3/TPR-Met cells; type: cell-based; details: Mus musculus, NIH3T3, 72 h, read-out: inhibition rate (%) on proliferation of NIH3T3/TPR-Met cells
Protocol: Three concentrations were set, and for each concentration, the test was carried out in triplicate wells. 72 h later, the culture medium was removed. The residue was fixed by precooled 10% TCA at 4° C. for 1 h, washed by distilled water for 5 times and dried at room temperature. […] The excess dye was removed by washed with 1% glacial acetic acid for 5 times and dried in air. At last, 150 μL of Tris-HCL solution (10 mM Tris, pH 10.0) was added to each well.

NIH3T3 background cells = experiment: Cell proliferation, SRB assay, NIH3T3 background cells as control; type: cell-based; details: Mus musculus, NIH3T3, 72 h, read-out: inhibition rate (%) on proliferation of NIH3T3 background cells
Protocol: NIH3T3/TPR-Met cells in the logarithmic growth phase and NIH3T3 background cells were seeded in a 96-well microcuture plate at 90111_, per well and cultivated overnight, followed by addition of 104 of the compound at different concentrations. Three concentrations were set, and for each concentration, the test was carried out in triplicate wells. 72 h later, the culture medium was removed. The residue was fixed by precooled 10% TCA at 4° C. for 1 h, washed by distilled water for 5 times and dried at room temperature. After that, 4 mg/mL of sulforodamine B (SRB) in 1% glacial acetic acid was added to each well (1004 per well) for staining at room temperature for 15 min. The excess dye was removed by washed with 1% glacial acetic acid for 5 times and dried in air. At last, 150 μL of Tris-HCL solution (10 mM Tris, pH 10.0) was added to each well. OD values were measured on a multi-well spectrophotometer at […].

Chain of c-Met tyrosine kinase (P08581 25-1390): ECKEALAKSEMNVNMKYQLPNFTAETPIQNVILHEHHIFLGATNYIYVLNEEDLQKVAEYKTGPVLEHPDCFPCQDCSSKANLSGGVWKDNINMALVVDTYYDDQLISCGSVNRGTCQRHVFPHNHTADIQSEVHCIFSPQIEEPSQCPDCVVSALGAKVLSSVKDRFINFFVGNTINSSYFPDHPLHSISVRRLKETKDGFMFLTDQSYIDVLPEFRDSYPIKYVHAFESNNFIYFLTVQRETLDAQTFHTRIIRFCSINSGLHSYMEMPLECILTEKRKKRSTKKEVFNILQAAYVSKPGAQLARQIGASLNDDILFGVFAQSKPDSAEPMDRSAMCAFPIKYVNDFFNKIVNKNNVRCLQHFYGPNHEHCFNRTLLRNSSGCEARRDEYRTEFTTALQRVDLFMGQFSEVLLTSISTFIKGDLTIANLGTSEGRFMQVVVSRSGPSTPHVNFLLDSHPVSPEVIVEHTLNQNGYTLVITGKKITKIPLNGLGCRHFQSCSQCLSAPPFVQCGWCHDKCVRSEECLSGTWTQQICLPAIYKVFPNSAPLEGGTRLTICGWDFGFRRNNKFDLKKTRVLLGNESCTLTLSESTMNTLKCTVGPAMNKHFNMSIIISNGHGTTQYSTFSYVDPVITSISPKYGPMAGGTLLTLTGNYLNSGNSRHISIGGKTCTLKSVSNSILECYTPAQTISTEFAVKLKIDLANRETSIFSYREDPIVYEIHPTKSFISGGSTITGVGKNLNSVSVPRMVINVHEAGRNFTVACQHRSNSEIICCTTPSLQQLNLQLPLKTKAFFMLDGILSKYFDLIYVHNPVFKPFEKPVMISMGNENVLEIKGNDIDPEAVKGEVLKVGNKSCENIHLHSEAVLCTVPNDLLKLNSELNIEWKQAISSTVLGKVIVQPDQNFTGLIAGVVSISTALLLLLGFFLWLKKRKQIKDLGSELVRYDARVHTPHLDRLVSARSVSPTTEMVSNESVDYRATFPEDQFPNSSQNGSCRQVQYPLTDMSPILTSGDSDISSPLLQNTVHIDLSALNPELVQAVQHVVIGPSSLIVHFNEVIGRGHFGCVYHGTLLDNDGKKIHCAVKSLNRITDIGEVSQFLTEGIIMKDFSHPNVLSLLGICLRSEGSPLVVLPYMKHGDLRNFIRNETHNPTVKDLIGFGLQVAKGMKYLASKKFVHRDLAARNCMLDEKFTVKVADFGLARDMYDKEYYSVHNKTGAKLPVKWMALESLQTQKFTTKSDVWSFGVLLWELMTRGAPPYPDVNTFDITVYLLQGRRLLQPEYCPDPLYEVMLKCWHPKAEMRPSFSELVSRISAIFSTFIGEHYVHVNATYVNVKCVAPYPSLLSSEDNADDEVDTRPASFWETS

SMILES | IC50 (c-Met tyrosine kinase) [nM] | inhibition at 10 µM (NIH3T3/TPR-Met cells) [%] | inhibition at 10 µM (NIH3T3 background cells) [%] | inhibition at 1 µM (NIH3T3/TPR-Met cells) [%] | inhibition at 50 µM (NIH3T3/TPR-Met cells) [%] | inhibition at 1 µM (NIH3T3 background cells) [%] | inhibition at 50 µM (NIH3T3 background cells) [%]
CCCn1cc(-c2cnc3nnc(Cc4c[nH]c5ccccc45)n3n2)cn1 [Compound I-9, 3-(3-indolylmethyl)-6-[(1-propyl)-4-pyrazolyl]-[1,2,4]triazolo[4,3-b][1,2,4]triazine] | 223 | 9.4 | 22.7 | 5 | 67.5 | 17.8 | 37.3
FC(F)(c1ccc2ncccc2c1)c1nnc2ncc(-c3ccc(OCc4ccccc4)cc3)nn12 [Compound I-24, 3-[(6-quinolyl)difluoromethyl]-6-(4-benzyloxy-phenyl)-[1,2,4]triazolo[4,3-b][1,2,4]triazine] | 2.9 | 87.7 | 23.6 | 83.5 | 87.2 | 16.9 | 32.8
COc1ccc2c(OCc3nnc4ncc(-c5ccc([N+](=O)[O-])cc5)nn34)ccnc2c1 [II-6, 3-[(7-methoxy-4-quinolyl)oxymethyl]-6-(4-nitrophenyl)-[1,2,4]triazolo[4,3-b][1,2,4]triazine] | 0.56 | 82.4 | 53.3 | 78.6 | 82.3 | 46.2 | 50.6
Oc1cccc(-c2cnc3nnc(COc4ccnc5ccccc45)n3n2)c1 [II-27, 3-(4-quinolyloxymethyl)-6-(3-hydroxyphenyl)-[1,2,4]triazolo[4,3-b][1,2,4]triazine] | 0.88 | 72.6 | 37.7 | 9.2 | 80.7 | 18.3 | 46
Brc1ccc(-c2cnc3nnc(Cc4ccc5ncccc5c4)n3n2)cc1 [Compound I-17, 3-(6-quinolylmethyl)-6-(4-bromophenyl)-[1,2, 4]triazolo[4,3-b][1,2,4]triazine] | – | – | 35.9 | – | – | 24.9 | 34.9
c1ccc(COc2ccc(-c3cnc4nnc(Cc5ccc6ncccc6c5)n4n3)cc2)cc1 [Compound I-2, 3-(6-quinolylmethyl)-6-(4-benzyloxyphenyl)-[1,2,4]triazolo[4,3-b][1,2,4]triazine] | – | – | 28.4 | – | – | 16.2 | 33.1
COc1ccc2c(OCc3nnc4ncc(-c5cnn(C)c5)nn34)ccnc2c1 [II-29, 3-[(7-methoxy-4-quinolyl)oxymethyl]-6-[(1-methyl)-4-pyrazolo]-[1,2,4]triazolo[4,3-b][1,2,4] triazine] | 2.4 | 88.2 | 32.9 | 87.4 | 91.9 | 31.8 | 50.9
c1ccc(COc2ccc(-c3cnc4nnc(Cc5c[nH]c6ccccc56)n4n3)cc2)cc1 [Compound I-18, 3-(3-indolylmethyl)-6-(4-bnzyloxyphenyl)-[1,2,4]triazolo[4,3-b][1,2,4]triazine] | – | – | 20.8 | – | – | 17.5 | 28.7

More lines, main results first:

IC50 (c-Met tyrosine kinase) [nM] | SMILES | inhibition at 10 µM (NIH3T3/TPR-Met cells) [%] | inhibition at 10 µM (NIH3T3 background cells) [%] | inhibition at 1 µM (NIH3T3/TPR-Met cells) [%] | inhibition at 50 µM (NIH3T3/TPR-Met cells) [%] | inhibition at 1 µM (NIH3T3 background cells) [%] | inhibition at 50 µM (NIH3T3 background cells) [%]
182 | COc1cc2nccc(OCc3nnc4ncc(-c5ccc(Cl)cc5)nn34)c2cc1OC [II-15, 3-[(6,7-dimethoxy-4-quinolyl)oxymethyl]-6-(4-chlorophenyl)-[1,2,4]triazolo[4,3-b][1,2,4] triazine] | 22.6 | 0 | – | – | – | –
2.9 | COc1cc2nccc(OCc3nnc4ncc(-c5ccccc5)nn34)c2cc1OC [II-17, 3-[(6,7-dimethoxy-4-quinolyl)oxymethyl]-6-phenyl-[1,2,4]triazolo[4,3-b][1,2,4]triazine] | 65.2 | 1.2 | – | – | – | –
0.3 | COc1cc2nccc(OCc3nnc4ncc(-c5ccc(OCc6ccccc6)cc5)nn34)c2cc1OC [II-19, 3-[(6,7-dimethoxy-4-quinolyl)oxymethyl]-6-(4-benzyloxyphenyl)-[1,2,4]triazolo[4,3-b][1,2,4] triazine] | – | 31.1 | 6.55 | 97 | 24.9 | 83.4
32.4 | COc1ccc2c(OCc3nnc4ncc(-c5ccc(OCc6ccccc6)cc5)nn34)ccnc2c1 [II-8, 3-[(7-methoxy-4-quinolyl)oxymethyl]-6-(4-benzyloxyphenyl)-[1,2,4]triazolo[4,3-b][1,2,4] triazine] | 81.2 | 7.5 | – | – | – | –
0.78 | COC(=O)c1ccc(-c2cnc3nnc(COc4ccnc5cc(OC)ccc45)n3n2)cc1 [II-5, 3-[(7-methoxy-4-quinolyl)oxymethyl]-6-(4-methoxyformylphenyl)-[1,2,4]triazolo[4,3-b][1,2, 4]triazine] | 79.2 | 6.2 | – | – | – | –
1 | COc1cccc(-c2cnc3nnc(COc4ccnc5ccccc45)n3n2)c1 [II-26, 3-(4-quinolyloxymethyl)-6-(3-methoxyphenyl)-[1,2,4]triazolo[4,3-b][1,2,4]triazine] | 82.7 | 58.7 | 20.9 | 83.9 | 36.8 | 62.2
3 | COc1cc2nccc(OCc3nnc4ncc(-c5ccc(F)cc5)nn34)c2cc1OC [II-14, 3-[(6,7-dimethoxy-4-quinolyl)oxymethyl]-6-(4-fluorophenyl)-[1,2,4]triazolo[4,3-b][1,2,4] triazine] | 75.6 | 0 | – | – | – | –
0.88 | COc1ccc(-c2cnc3nnc(COc4ccnc5ccccc45)n3n2)cc1 [II-23, 3-(4-quinolyloxymethyl)-6-(4-methoxyphenyl)-[1,2,4]triazolo[4,3-b][1,2,4]triazine] | 83.2 | 49.8 | 29 | 88.5 | 22.8 | 31.3
0.2 | COc1cc2nccc(OCc3nnc4ncc(-c5ccc(Br)cc5)nn34)c2cc1OC [II-16, 3-[(6,7-dimethoxy-4-quinolyl)oxymethyl]-6-(4-bromophenyl)-[1,2,4]triazolo[4,3-b][1,2,4] triazine] | 87.9 | 56.2 | – | – | – | –
0.23 | COc1ccc2c(OCc3nnc4ncc(-c5ccc(Br)cc5)nn34)ccnc2c1 [II-3, 3-[(7-methoxy-4-quinolyl)oxymethyl]-6-(4-bromophenyl)-[1,2,4]triazolo[4,3-b][1,2,4]triazine] | 77.3 | 33.8 | – | – | – | –
